As a reminder, the Kd is the concentration at which binding is half-saturated. What is called IC50 is the concentration needed to halve the response being measured.

Results on five compounds are retold here after patent publication US7169930B2, “Analogs of epothilone” (The Scripps Research Institute, priority 2002, dated 2007).

Test [1] concerns the target taxoid binding site of microtubules. The test can be described thus: Fluorescent taxoid (Flutax-2) displacement assay. The following applies: 37° C., read-out: equilibrium dissociation constant Kd. How it is done:
In addition to the above biological assays, the relative potency of each epothilone analogue was measured by the fluorescent taxoid displacement assay (Andreu, J. M.; Barasoain, I. Biochemistry 2001, 40, 11975–11984). The purpose of these experiments was to compare the equilibrium constants with which microtubules bind at their taxane site the epothilone analogues investigated. The inhibition of the binding of the well-characterized fluorescent taxoid Flutax-2 (Souto, A. A.; et al. Angew. Chem. Int. Ed. Engl. 1995, 34, 2710–2712; Diaz, J. F.; et al. J. Biol. Chem. 2000, 275, 26265–26276; Abal, M.; et al. Cell. Motil. Cytoskeleton 2001, 49, 1–15) to microtubules by each of the epothilone analogues was measured at 37° C. (FIG. 2). […]
FIG. 2 illustrates a chart showing the displacement of the fluorescent taxoid Flutax-2 (50 nM) from microtubule binding sites (50 nM) by competing ligands at 37° C. […] Representative curves for selected epothilone analogues (3, 4, and 8) are presented in this figure to exemplify how the binding affinities were measured for each compound in Table 3.
FIG. 16 illustrates a table disclosing binding affinities of epothilone analogues to the taxoid binding site of microtubules. […] The binding constant of the reference ligand Flutax-2 was measured by centrifugation and fluorescence anisotropy, at each temperature (Diaz, J. F.; et al. J. Biol. Chem. 2000, 275, 26265–26276).

The next test has as its target porcine tubulin (Sus scrofa, UniProt P02554). The following applies: data from ref. 3; cited from earlier work.
Test [2] has as its system 1A9 human ovarian carcinoma cells. Nature of the test: Cytotoxicity, 72 h growth inhibition SRB (sulforhodamine-B) assay, parental cell line. It is filed as cell-based. How it is done:
The biological activities of the synthesized epothilones were evaluated through cytotoxicity, in vitro tubulin polymerization, and tubulin binding assays. Cytotoxicity was first evaluated in a set of ovarian carcinoma cell lines, including a parental cell line (IA9) and three drug-resistant cell lines, namely the paclitaxel-resistant strains (Giannakakou, P.; et al. J. Biol. Chem. 1997, 272, 17118–17125) IA9/PTX10 and IA9/PTX22 and the epothilone-resistant strain (Giannakakou, P.; et al. Proc. Natl. Acad. Sci. U.S.A. 2000, 97, 2904–2909) 1A9/A8. These resistant cell lines harbor distinct acquired β-tubulin mutations which affect drug-tubulin interaction and result in impaired taxane and epothilone-driven tubulin polymerization. The results of these biological investigations are summarized in Table 1 (Skehan, P.; et al. J. Natl. Cancer Inst. 1990, 82, 1107–1112). […]
(§1) The biological activities of the synthesized epothilones were evaluated through cell growth inhibition assays (cytotoxicity assays). Cytotoxicity was first evaluated in a set of ovarian carcinoma cell lines, including a parental cell line (IA9) and three drug-resistant cell lines, namely the paclitaxel-resistant cell lines IA9/PTX10 and IA9/PTX22 (Giannakakou, P.; et al. J. Biol. Chem. 1997, 272, 17118–17125.) and the epothilone-resistant cell line 1A9/A8 (Giannakakou, P.; et al. Proc. Natl. Acad. Sci. 2000, 97, 2904–2909.). […]

For test [3] the test system is unchanged. The following applies: previous data, Tetrahedron 2002, 58, 6413; cited from earlier work.
The subject of test [4] is KB-31 human epidermoid carcinoma cells. Nature of the test: Cytotoxicity, 96 hour drug exposure, protein dye method, parent epidermoid line. Particulars: KB 3-1, KB-31 cells, 96 hour exposure. It is filed as cell-based. How it is done:
(§2) The biological activities of the synthesized epothilones were evaluated through cytotoxicity, in vitro tubulin polymerization, and tubulin binding assays. Cytotoxicity was first evaluated in a set of ovarian carcinoma cell lines, including a parental cell line (IA9) and three drug-resistant cell lines, namely the paclitaxel-resistant strains (Giannakakou, P.; et al. J. Biol. Chem. 1997, 272, 17118–17125) IA9/PTX10 and IA9/PTX22 and the epothilone-resistant strain (Giannakakou, P.; et al. Proc. Natl. Acad. Sci. U.S.A. 2000, 97, 2904–2909) 1A9/A8. […]
as §1
(§3) FIG. 15 illustrates a table disclosing the tubulin polymerization potency and cytotoxicity of epothilones 1–8, 10–14, and paclitaxel against human epidermoid cancer cell lines. […] Relative resistance (RR) was calculated by dividing the IC50 value for the resistant cell line by that of the sensitive cell line. […]

Test [5] relates to KB-8511 cells. The test can be described thus: Cytotoxicity, 96 hour drug exposure, protein dye method, Pgp-overexpressing line. Particulars: versus KB-31; Table 2. It is filed as cell-based, human. Here is the method:
as §2, §1, §3

The subject of test [6] is KB-8511 cells. Particulars: previously shown, Tetrahedron 2002, 58, 6413; cited from earlier work.

Chain of porcine tubulin (P02554 whole entry): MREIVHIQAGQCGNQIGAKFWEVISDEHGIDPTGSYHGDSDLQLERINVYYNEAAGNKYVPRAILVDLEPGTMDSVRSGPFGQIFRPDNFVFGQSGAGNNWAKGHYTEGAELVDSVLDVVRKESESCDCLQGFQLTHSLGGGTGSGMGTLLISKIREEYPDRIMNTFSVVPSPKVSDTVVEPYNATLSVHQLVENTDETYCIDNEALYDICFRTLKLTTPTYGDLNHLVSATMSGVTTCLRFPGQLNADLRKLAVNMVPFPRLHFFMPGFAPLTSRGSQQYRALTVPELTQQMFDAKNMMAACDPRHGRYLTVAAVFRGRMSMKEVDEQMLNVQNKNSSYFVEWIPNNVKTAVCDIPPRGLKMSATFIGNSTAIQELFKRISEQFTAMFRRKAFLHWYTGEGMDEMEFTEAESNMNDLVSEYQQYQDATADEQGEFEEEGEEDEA
Chain of porcine tubulin (P02550 whole entry partner): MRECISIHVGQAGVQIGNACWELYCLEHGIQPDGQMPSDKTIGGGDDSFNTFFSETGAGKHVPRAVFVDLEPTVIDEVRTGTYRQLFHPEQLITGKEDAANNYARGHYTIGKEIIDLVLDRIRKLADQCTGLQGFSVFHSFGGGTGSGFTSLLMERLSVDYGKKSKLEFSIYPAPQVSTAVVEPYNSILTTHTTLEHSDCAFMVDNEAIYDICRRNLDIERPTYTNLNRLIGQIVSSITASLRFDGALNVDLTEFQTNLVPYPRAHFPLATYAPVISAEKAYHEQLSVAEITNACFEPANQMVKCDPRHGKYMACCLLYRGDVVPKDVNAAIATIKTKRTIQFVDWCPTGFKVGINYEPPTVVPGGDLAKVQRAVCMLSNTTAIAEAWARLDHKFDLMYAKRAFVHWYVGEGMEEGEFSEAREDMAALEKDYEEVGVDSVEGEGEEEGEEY

For `C/C(=C\c1csc(C)n1)[C@@H]1C[C@@H]2O[C@@H]2CCC[C@H](C)[C@H](O)[C@@H](C)C(=O)C(C)(C)[C@@H](O)CC(=O)O1` [Compound 1, epothilone A], the dissociation constant (Kd) in test [1] was 34 ± 4 nM. The “% TP (tubulin polymerization)” value on porcine tubulin was 69%.
As for `C/C(=C\c1csc(C)n1)[C@@H]1C[C@@H]2O[C@]2(C)CCC[C@H](C)[C@H](O)[C@@H](C)C(=O)C(C)(C)[C@@H](O)CC(=O)O1` [Compound 2, epothilone B], the “fold more active than epothilone A (1)” value in test [2] (cis epoxide series, conclusion drawn collectively from all three assays) was “at least 10 fold”. The “% TP (tubulin polymerization)” value at porcine tubulin was 90%.
For the compound `CSc1nc(/C=C(\C)[C@@H]2C[C@@H]3O[C@]3(C)CCC[C@H](C)[C@H](O)[C@@H](C)C(=O)C(C)(C)[C@@H](O)CC(=O)O2)cs1` [Compound 3, 2-(thiomethyl)thiazole epothilone B], in test [1], the equilibrium dissociation constant (Kd) came out at 0.64 ± 0.24 nM. The “fold more active than the parent epothilone B” value in test [3] is “about 2 fold”.
Consider `CC(=Cc1ccc(C)cn1)C1CC2CC2(C)CCCC(C)C(O)C(C)C(=O)C(C)(C)C(O)CC(=O)O1` (centres unmarked) [Compound 8], for which the IC50 in test [2] (Homo sapiens, 1A9 cells, 72 h SRB assay) stood at 1.7 nM; in test [4] it was 0.9 nM.
With `CC(=O)O[C@H]1C(=O)[C@@]2(C)[C@H]([C@H](OC(=O)c3ccccc3)[C@]3(O)C[C@H](OC(=O)[C@H](O)[C@@H](NC(=O)c4ccccc4)c4ccccc4)C(C)=C1C3(C)C)[C@]1(OC(C)=O)CO[C@@H]1C[C@@H]2O` [paclitaxel], the “fold less active against KB-8511 cells” value with KB-8511 cells [5] is listed as 214 fold. Further, in the test on KB-8511 cells [6], the “fold less active against KB-8511 cells compared to KB-31 cells” value was 214 fold. The “% TP (tubulin polymerization)” value at porcine tubulin is 49%.
